Results taken from patent publication US20070224167A1, “Novel HCV inhibitor combinations and methods” (priority 2006, published 2007).
pEC50: −log10 of the molar value.

How the values were obtained:
[1] = tested on: Huh7-BB7 cells; assay: Selection of replicon variants with reduced susceptibility, Study B; assay type: cell-based, HCV genotype 1b; conditions: prolonged treatment
Protocol: Huh7-BB7 cells are plated at a density of 2-3×10^5 cells per T25 flask and cultured in DMEM medium with 2% FCS in the absence of G418. The cells are treated with DMSO as a control, or HCV-796 alone at 40 and 80 nM, or SCH 503034 alone at 200, 400, 600 and 800 nM, or a combination of HCV-796 and SCH 503034 at 40/400, 80/400, 40/800 and 80/800 nM, respectively, for HCV-796 and SCH 503034. The DMSO concentration in both drug-treated and control cells is 0.5% (v/v). Tissue culture plates are incubated in a 37° C. incubator containing 5% CO2. When cells reach about 80% confluence (about 2-3 days), cells are passaged in a 1:3 dilution and the old medium is replaced with fresh medium containing the compounds at the respective concentrations. Cell pellets containing […] are collected during each passage, and monitored for HCV RNA using quantitative Taqman RT-PCR as described above. […]
Drug susceptibility of the replicon variants is evaluated as previously described in the section “Intracellular antiviral activities in HCV Replicon”. […] The plate is incubated for 72 hours at 37° C. and 5% CO2 before quantification of HCV and GAPDH RNAs. The amounts of HCV, rRNA and GAPDH RNAs are quantified using the TaqMan RT-PCR assay as described above (see Quantification of HCV and 18S Ribosomal RNAs).

[2] = tested on: GAPDH RNA, Huh7 BB7 replicon cells; assay: GAPDH RNA in genotype 1b (BB7) replicon cells; assay type: cell-based; conditions: Homo sapiens, Huh-7, 72 h, read-out: GAPDH EC50
Protocol: (§1) HCV genotype 1b, BB7 replicon-containing cell line is derived from a human hepatoma cell line (Huh7). A genotype 1a (H77 isolate; GenBank Accession #AF009606) is derived from replicon-containing cell line (Huh7-1a). The cell lines are cultured at 37° C. and 5% CO2 in Dulbecco's Modified Eagle Media (D-MEM; Invitrogen #11965-084) containing 10% fetal bovine serum (FBS; HyClone #SH300070) supplemented with 1% penicillin/streptomycin (Invitrogen #15140-122), 1% non-essential amino acids (Invitrogen #11140-050), 0.66 mM HEPES buffer, pH 7.55 (Invitrogen #15630-080), and 1 mg/mL G418 (Geneticin®, Invitrogen #11811-031 or #10131-027). Genotype 1a and genotype 1b replicon-containing cell lines contain approximately 1000 and 2000 RNA genome equivalents per cell, respectively, when maintained in a subconfluent monolayer in the presence of 1 mg/mL G418. For compound testing, G418 is eliminated and the FBS concentration is reduced to 2%.
(§2) Genotype 1b (BB7) and 1a (H77) cells are seeded in 96-well plates at a sub-confluent density (7000 cells/well) in medium containing 2% FBS without G418. […] The amounts of HCV, rRNA and GAPDH RNAs are quantified using the TaqMan RT-PCR assay.

[3] = tested on: GAPDH RNA, Huh7-1a replicon cells; assay: GAPDH RNA in genotype 1a (H77) replicon cells; assay type: cell-based; conditions: Homo sapiens, 72 h, read-out: GAPDH EC50
Protocol: as §1, §2

Structure (SMILES)	Selection of resistant replicon variants ([1]; up to 80 nM HCV-796 alone)	pEC50 [2]	pEC50 [3]	Selection of resistant replicon variants ([1]; 800 nM SCH 503034 alone)
CNC(=O)c1c(-c2ccc(F)cc2)oc2cc(N(CCO)S(C)(=O)=O)c(C3CC3)cc12 [HCV-796, 5-cyclopropyl-2-(4-fluoro-phenyl)-6-[(2-hydroxy-ethyl)-methanesulfonyl-amino]-benzofuran-3-carboxylic acid methylamide]	selection of replicon variants that have reduced susceptibility	< 5.61	< 5.25	–
CC(C)(C)NC(=O)N[C@H](C(=O)N1C[C@H]2[C@@H]([C@H]1C(=O)NC(CC1CCC1)C(=O)C(N)=O)C2(C)C)C(C)(C)C (stereo partly drawn) [SCH 503034, (1R,5S)—N-[3-amino-1-(cyclobutylmethyl)-2,3-dioxopropyl]-3-[2(S)-[[[(1,1-dimethylethyl)amino]carbonyl]amino]-3,3-dimethyl-1-oxobutyl]-6,6-dimethyl-3-azabicyclo[3.1.0]hexan-2(S)-carboxamide]	–	< 5.49	< 5.49	selection of replicon variants that have reduced susceptibility
